The values below are quoted from earlier work in patent publication US20110135569A1, “METHOD FOR THERAPEUTIC ADMINISTRATION OF RADIONUCLEOSIDES” (Peak Biosciences Inc., priority 2007, published 2011).

Structures are written as SMILES.

The test system of one series is replicating cancer cells. The settings on record: low picomolar range, e.g. value.
For series [1] the following is noted: human subjects; locally injected or intra-arterially infused.

With `O=c1[nH]c(=O)n([C@H]2C[C@H](O)[C@@H](CO)O2)cc1[125I]` [^125IUDR, 5-[^125I]-iodouridine 2′-deoxyribonucleoside], the “concentration able to destroy the chromosomes of replicating cancer cells” value in the series with replicating cancer cells is reported as 5 picomoles/liter. In series [1], the plasma half-life result is “less than 5 minutes”.
